Laboratory results as given in US12448383B2, “Compounds and methods for treatment of viral infections” (priority 2022, dated 2025).

Experiments:
[1] = male, Sprague-Dawley, rat, in vivo, po
Protocol: Example E: Rat pharmacokinetics assay
Blood samples were collected into pre-chilled collection tubes containing K2EDTA and processed to plasma at 10 time points over a span of pre-dose to 24 h post-administration. Plasma samples were subject to protein precipitation with a 12.5-fold volume of methanol, vortexed and centrifuged. Supernatants were transferred and evaporated to dryness under nitrogen and reconstituted with 5% acetonitrile in water.

[2] = Stability in pH2 buffered solution; assay type: physicochemical; details: 50 µg/mL, pH 2
How it was run: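 Compounds diluted from 1 mg/mL acetonitrile stock to 50 μg/mL in 50 mM phosphate buffer with 150 mM NaCl at pH2 or pH7, held at 40° C. for 24 hrs. UPLC sampling at 0, 3, 6, 9, 12 hrs, plus 24 hrs from oven-stored duplicate; reported as % area normalized of compound peak.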

With CC(C)C(=O)OC[C@H]1O[C@@](C#N)(c2ccc3c(N)ncnn23)[C@H](O)[C@@H]1O [Ester Reference Compound] the Cmax [1] was 2100 nM, the “Reference Compound A AUCinf.” value [1] was 7.57 µM·h and the “Reference Compound A F %” value ([1]; 1 mg/kg) was 63.6%. The “Stability at pH2, 0 hr” value ([2]; 0 h) was 98.5 % AN, the “Stability at pH2, 3 hr” value ([2]; 3 h) was 97.8 % AN and the “Stability at pH2, 6 hr” value ([2]; 6 h) was 97.3 % AN. The “Stability at pH2, 9 hr” value ([2]; 9 h) was 96.7 % AN, the “Stability at pH2, 12 hr” value ([2]; 12 h) was 96.1 % AN and the “Stability at pH2, 24 hr” value ([2]; 24 h) was 94.4 % AN.
